This passage reports mortality results from patent US9199942B2, “Processes for the preparation of pesticidal compounds” (Dow AgroSciences LLC, priority 2013, dated 2015).

Assay [1] concerns Green Peach Aphid (Myzus persicae) (MYZUPE). As to the kind of experiment: Bioassay on green peach aphid (GPA), foliar spray on infested cabbage seedlings. Conditions: 72 h, read-out: MYZUPE rating (% Control of Mortality). It is filed as in vivo. As to the method: Example A Bioassays on Green Peach Aphid (“GPA”) (Myzus persicae) (MYZUPE.
Several molecules disclosed herein were tested against GPA using procedures described below.
Cabbage seedling grown in 3-in pots, with 2-3 small (3-5 cm) true leaves, were used as test substrate. The seedlings were infested with […] (wingless adult and nymph stages) one day prior to chemical application. Four posts with individual seedlings were used for each treatment. Test compounds (2 mg) were dissolved in 2 mL of acetone/methanol (1:1) solvent, forming stock solutions of 1000 ppm test compound. The stock solutions were diluted 5× with 0.025% Tween 20 in water to obtain the solution at 200 ppm test compound. A hand-held aspirator-type sprayer was used for spraying a solution to both sides of the cabbage leaves until runoff. Reference plants (solvent check) were sprayed with the diluent only containing 20% by volume acetone/methanol (1:1) solvent. Treated plants were held in a holding room for three days at approximately 25° C. and ambient relative humidity (RH) prior to grading. Evaluation was conducted by counting the number of live aphids per plant under a microscope. Percent Control was measured by using Abbott's correction formula (W. S. Abbott, “A Method of Computing the Effectiveness of an Insecticide” J. Econ. Entomol 18 (1925), pp. 265-267) as follows. Corrected % Control=100*(X−Y)/X • where • X=No. of live aphids on solvent check plants and • Y=No. of live aphids on treated plants
The results are indicated in the table entitled “Table 1: GPA (MYZUPE) and sweetpotato whitefly-crawler (BEMITA) Rating Table”.

The subject of assay [2] is Sweetpotato Whitefly Crawler (Bemisia tabaci) (BEMITA). Description: Bioassay on sweetpotato whitefly crawler, foliar spray on infested cotton plants. In kind it is in vivo. The following applies: read-out: BEMITA rating (% Control of Mortality). An excerpt:
Example B Bioassays on Sweetpotato Whitefly Crawler (Bemisia tabaci) (BEMITA.)
Cotton plants grown in 3-inch pots, with 1 small (3-5 cm) true leaf, were used at test substrate. The plants were placed in a room with whitely adults. Adults were allowed to deposit eggs for 2-3 days. After a 2-3 day egg-laying period, plants were taken from the adult whitefly room. Adults were blown off leaves using a hand-held Devilbliss sprayer (23 psi). Plants with egg infestation (100-300 eggs per plant) were placed in a holding room for 5-6 days at 82° F. and 50% RH for egg hatch and crawler stage to develop. Four cotton plants were used for each treatment. Compounds (2 mg) were dissolved in 1 mL of acetone solvent, forming stock solutions of 2000 ppm. The stock solutions were diluted 10× with 0.025% Tween 20 in water to obtain a test solution at 200 ppm. A hand-held Devilbliss sprayer was used for spraying a solution to both sides of cotton leaf until runoff. Reference plants (solvent check) were sprayed with the diluent only. Treated plants were held in a holding room for 8-9 days at approximately 82° F. and 50% RH prior to grading. Evaluation was conducted by counting the number of live nymphs per plant under a microscope.

Where [3] appears, read: 200 ppm spray on cabbage leaves, live aphids counted after three days, Abbott's correction.
Where [4] appears, read: 200 ppm spray on cotton leaves, live nymphs counted after 8-9 days, Abbott's correction.

What is called mortality is the share of the test organisms that died.

The structures appear in SMILES notation. Where a name gives a salt, the structure may show the parent alone. Read-outs that look alike come from different tables or passages of the source.

Take `O=C(CCCl)Nc1c[nH]nc1Cl` [Compound 4a, 3-chloro-N-(-3-chloro-1H-pyrazol-4-yl) propanamide]: the mortality at 200 ppm in assay [1] (setting [3]) is under 0%; in assay [2] (setting [4]), 0 to 80%.

In the case of `Nc1c[nH]nc1Cl` [Compound 1a, 3-chloro-1H-pyrazol-4-amine hydrochloride], the mortality at 200 ppm in assay [1] and in assay [2] was 0 to 80% throughout.

With `O=C(CCSCCC(F)(F)F)Nc1c[nH]nc1Cl` [Compound 3.4], the mortality at 200 ppm in assay [1] (setting [3]) and in assay [2] (setting [4]) was 0 to 80% in each case.
